Source: ChEMBL document CHEMBL1681656, “Design and synthesis of AApeptides: a new class of peptide mimics” (Bioorg Med Chem Lett, 2011)

How the values were obtained:
[1] = Chemical stability of the compound assessed as enzymatic hydrolysis in ammonium bicarbonate buffer at pH 7.8 after 24 hrs in presence of trypsin; type: physicochemical; details: isolated protein, pH 7.8, 24 h
[2] = Inhibition of GST-MDM2/His6-p53 interaction expressed in Escherichia coli after 1 hr by ELISA
[3] = Chemical stability of the compound assessed as enzymatic hydrolysis in ammonium bicarbonate buffer at pH 7.8 after 24 hrs in presence of pronase; type: physicochemical; details: pH 7.8, 24 h
[4] = Chemical stability of the compound assessed as enzymatic hydrolysis in ammonium bicarbonate buffer at pH 7.8 after 24 hrs in presence of chymotrypsin; type: physicochemical; details: isolated protein, pH 7.8, 24 h

Stability [1] | IC50 [2] | Stability [3] | Stability [4] | SMILES
 | 8.7 µM |  |  | CC(=O)N[C@@H](CCC(N)=O)C(=O)N[C@@H](CCC(=O)O)C(=O)N[C@H](C(=O)N[C@@H](Cc1ccccc1)C(=O)N[C@@H](CO)C(=O)N[C@@H](CC(=O)O)C(=O)N[C@@H](CC(C)C)C(=O)N[C@@H](Cc1c[nH]c2ccccc12)C(=O)N[C@@H](CCCCN)C(=O)N[C@@H](CC(C)C)C(=O)N[C@@H](CC(C)C)C(=O)N1CCC[C@H]1C(=O)O)[C@@H](C)O
 | > 1000 µM |  |  | CCC(=O)N(CCNC(=O)[C@H](Cc1c[nH]c2ccccc12)N(CCNC(=O)[C@H](Cc1ccccc1)N(CCNC(=O)[C@H](C)N(CCN)C(=O)CC(C)C)C(=O)CC)C(=O)CCO)[C@H](C(N)=O)C(C)C

The remaining lines, values behind:

SMILES | Stability [1] | IC50 [2] | Stability [3] | Stability [4]
CCC(=O)N(CCNC(=O)[C@H](CC(C)C)N(CCNC(=O)[C@H](Cc1c[nH]c2ccccc12)N(CCNC(=O)[C@H](Cc1ccccc1)N(CCNC(=O)[C@H](C)N(CCN)C(=O)CC)C(=O)CC)C(=O)CCO)C(=O)CCc1ccccc1)[C@@H](C)C(N)=O | Stable | 120 µM | Stable | Stable
CCC(=O)N(CCNC(=O)[C@H](CC(C)C)N(CCNC(=O)[C@H](Cc1c[nH]c2ccccc12)N(CCNC(=O)[C@H](Cc1ccccc1)N(CCNC(=O)[C@H](C)N(CCN)C(=O)CC)C(=O)CC)C(=O)CCO)C(=O)CC)[C@@H](C)C(N)=O |  | 38 µM |  | 
CCC(=O)N(CCNC(=O)[C@H](CC(C)C)N(CCNC(=O)[C@H](Cc1c[nH]c2ccccc12)N(CCNC(=O)[C@H](Cc1ccccc1)N(CCN)C(=O)CC)C(=O)CCO)C(=O)CC)[C@@H](C)C(N)=O |  | 120 µM |  | 
